Results published in article PMC11271627, “Molecular dynamics-guided optimization of BGM0504 enhances dual-target agonism for combating diabetes and obesity” (Scientific Reports, 2024).

Key:
Human GIPR = target: T1, Human GIPR (Homo sapiens, UniProt P48546); experiment: cAMP accumulation assay, GIPR; assay type: cell-based
T1 construct: expressed in transfected cells; host or cells: CHO cells
T1 sequence (P48546 22-466): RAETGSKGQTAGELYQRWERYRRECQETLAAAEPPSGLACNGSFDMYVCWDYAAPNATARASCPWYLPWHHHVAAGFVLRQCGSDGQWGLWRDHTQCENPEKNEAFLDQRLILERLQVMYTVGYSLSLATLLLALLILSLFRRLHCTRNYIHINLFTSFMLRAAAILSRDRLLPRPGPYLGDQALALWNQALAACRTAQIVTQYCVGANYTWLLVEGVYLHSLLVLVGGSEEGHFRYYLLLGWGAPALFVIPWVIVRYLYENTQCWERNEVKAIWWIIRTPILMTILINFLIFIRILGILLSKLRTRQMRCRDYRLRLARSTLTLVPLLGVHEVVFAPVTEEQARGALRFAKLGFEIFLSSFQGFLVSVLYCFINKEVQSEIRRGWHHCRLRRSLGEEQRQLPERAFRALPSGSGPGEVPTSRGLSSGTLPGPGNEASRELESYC
Method: These cells were then resuspended in 5 mL of the assay buffer, and their concentration was determined using a Vi-Cell Counter. […] Samples were subsequently added to the assay plate along with ECHO555. […] A volume of 10 µL of the cell suspension was added to the assay plate, with a density of 1000 cells/well for GLP-1R testing and 2000 cells/well for GIPR testing. The assay plate was then incubated in a 23°C incubator for 30 minutes. A starting concentration of 800 nM was used to prepare the cAMP standard curve, followed by a 4-fold 10-point serial dilution. These serially diluted cAMP standards were added to the assay plate at a volume of 10 µL/well. Subsequently, 10 µL of the cAMP detection solution was added to the assay plate, and the plate was incubated at room temperature for 1 hour, shielded from direct light. […] For data analysis, each data point’s cAMP level (nM) was calculated using the established cAMP standard curve. The percentage activity for each data point was determined using the formula: % Activity = (cAMP level of testing sample - average cAMP level of low control) / ([…] cAMP level of high control - average cAMP level of […] control) × 100%. Additionally, the ‘log(agonist) vs. response – variable slope’ model in GraphPad Prism 5.0 was used to fit the dose-response curve of each sample and calculate the EC50 value.

in vivo = experiment: in vivo; parameters: species or system cynomolgus monkeys; details: cynomolgus monkey
Method: In this trial, 24 cynomolgus monkeys (12 of each sex) were provided by Hainan Jingang Biotechnology Co., Ltd. Each animal was identified using a unique code on the chest and cage box, and its health status was confirmed by the veterinary team of WuXi AppTec Suzhou Drug Development Co., Ltd. before use. Temperature and humidity were monitored in the animal room, with data recorded daily to ensure that the relative humidity was maintained at 40%–70% and the temperature stayed between 18–26°C. The ventilation was set to 10–20 exchanges per hour, and a 12-hour alternating light-dark cycle was adopted. Regular growth feed was provided daily, and the animals had constant access to water. Additionally, the test animals were provided with fruit daily to meet their nutritional needs. The 24 cynomolgus monkeys were randomly divided into four groups, with three monkeys of each sex per group. Animals in group 1 received a single intravenous bolus of 0.1 mg/kg BGM0504, while groups 2, 3, and 4 received a single subcutaneous injection of 0.2, 1, and 5 mg/kg BGM0504 in 20 mM citrate buffer solution (pH=7.0±0.2), respectively. Blood samples for pharmacokinetic (PK) analysis were collected at specific time points (0.5, 1, 4, 6, 8, 12, 24, 48, 72, 96, 120, 168, 240, and 312 hours) before and after dosing. At the same time, blood glucose levels were measured at 0.5, 4, 24, 48, and 72 hours after dosing. The collected blood samples were transferred to labeled commercial tubes containing K2-EDTA (0.85–1.15 mg), gently inverted several times to ensure mixing, and immediately placed on wet ice. Within 60 minutes of blood collection, the samples were centrifuged for 10 minutes at 3200×g at 2°–8°C. Plasma was divided into two aliquots (one for analysis and one for later use), transferred to labeled polypropylene tubes, immediately snap-frozen vertically in dry ice, and stored in an ultra-low temperature freezer at -60°C or lower until transported to the Drug Evaluation Department of WuXi AppTec Shanghai Drug Development Co., Ltd. for LC-MS/MS analysis.

## CC[C@H](C)[C@H](NC(=O)[C@H](CC(C)C)NC(=O)[C@H](Cc1c[nH]c2ccccc12)NC(=O)[C@H](CCC(N)=O)NC(=O)[C@@H](NC(=O)[C@H](Cc1ccccc1)NC(=O)[C@H](C)NC(=O)[C@H](CCCCN)NC(=O)[C@H](CCC(N)=O)NC(=O)[C@H](C)NC(=O)[C@@H](NC(=O)[C@H](CCCCN)NC(=O)[C@H](CC(=O)O)NC(=O)[C@H](CC(C)C)NC(=O)C(C)(C)NC(=O)[C@@H](NC(=O)[C@H](CO)NC(=O)[C@H](Cc1ccc(O)cc1)NC(=O)[C@H](CC(=O)O)NC(=O)[C@H](CO)NC(=O)[C@@H](NC(=O)[C@H](Cc1ccccc1)NC(=O)[C@@H](NC(=O)CNC(=O)[C@H](CCC(=O)O)NC(=O)C(C)(C)NC(=O)[C@@H](N)Cc1ccc(O)cc1)[C@@H](C)O)[C@@H](C)O)[C@@H](C)CC)[C@@H](C)CC)C(C)C)C(=O)N[C@@H](C)C(=O)NCC(=O)NCC(=O)N1CCC[C@H]1C(=O)N[C@@H](CO)C(=O)N[C@@H](CO)C(=O)NCC(=O)N[C@@H](C)C(=O)N1CCC[C@H]1C(=O)N1CCC[C@H]1C(=O)N1CCC[C@H]1C(=O)N[C@@H](CO)C(=O)N[C@@H](CCCCNC(=O)COCCOCCOCCNC(=O)COCCOCCOCCNC(=O)CC[C@H](NC(=O)CCCCCCCCCCCCCCCCCCC(=O)O)C(=O)O)C(N)=O [BGM0504]
Human GIPR
  EC50: 0.182 nM
Human GIPR; CHO
  Emax: 106 ± 7.9%
In vivo; both sexes, iv, 0.1 mg/kg
  AUC(0-inf): 81.1 µg·h/mL
  AUC(0-t): 80.4 µg·h/mL
  C0: 2860 ± 261 ng/mL
  Vd: 0.0608 ± 0.005 L/kg
  clearance: 1.24 ± 0.132 mL/h/kg
  half-life: 37.9 ± 2.5 h
In vivo; both sexes, sc, 0.2 mg/kg
  AUC(0-inf): 113 µg·h/mL
  AUC(0-t): 113 µg·h/mL
  Cmax: 1440 ± 109 ng/mL
  Tmax: 16 ± 6.2 h
  bioavailability: 69.7%
  half-life: 38.7 ± 1.8 h
In vivo; both sexes, sc, 1 mg/kg
  AUC(0-inf): 491 µg·h/mL
  AUC(0-t): 488 µg·h/mL
  Cmax: 5970 ± 1090 ng/mL
  Tmax: 22 ± 14 h
  bioavailability: 60.5%
  half-life: 41.7 ± 2.9 h
In vivo; both sexes, sc, 5 mg/kg
  AUC(0-inf): 2740 µg·h/mL
  AUC(0-t): 2720 µg·h/mL
  Cmax: 33500 ng/mL
  Tmax: 20 ± 6.2 h
  bioavailability: 67.6%
  half-life: 43.4 ± 5.9 h
In vivo
  Tmax: 16 to 22 h
In vivo; iv, 0.1 mg/kg
  AUC0-24: 34.6 µg·h/mL
  AUC0–last (as headed in Table 1): 34,600 ± 2470 ng h/mL
  AUC0–∞ (as headed in Table 1): 80,400 ± 7880 ng h/mL
In vivo; sc, 0.2 mg/kg
  AUC0-24: 26.1 µg·h/mL
  AUC0–last (as headed in Table 1): 26,100 ± 1740 ng h/mL
  AUC0–∞ (as headed in Table 1): 113,000 ± 7940 ng h/mL
In vivo; sc, 1 mg/kg
  AUC0-24: 109 µg·h/mL
  AUC0–last (as headed in Table 1): 109,000 ± 21,900 ng h/mL
  AUC0–∞ (as headed in Table 1): 488,000 ± 51,200 ng h/mL
In vivo; sc, 5 mg/kg
  AUC0-24: 603 µg·h/mL
  AUC0–last (as headed in Table 1): 603,000 ± 94,200 ng h/mL
  AUC0–∞ (as headed in Table 1): 2,720,000 ± 246,000 ng h/mL
